Test results: patent publication US12662672B2, “Method of promoting survival and/or function of a motor neuron and related agents, uses and methods” (Agency for Science, Technology and Research, priority 2019, dated 2026)

Assays:
ALS MNs [1] = experiment: Motor neuron survival assay (ISL1+ MNs) in ALS iPSC-derived MNs; assay type: cell-based, human; conditions: for MN survival (ISL1+ MNs): ALS MNs, treatment from day 28, NAM 0.5 mM, C12 5 μM, Riluzole 5 μM, Edaravone 100 μM, siRNA 10 pmol
Source text: Cultures were then fixed with 4% PFA on Day 25, 28, 31 and 35 respectively for quantification of motor neuron survival. Fixed cultures were stained with the motor neuron marker ISL1, and cellular nuclei were counterstained with DAPI before imaging on the high content microscope Phenix (Perkin Elmer). Percentage of ISL1+ cells was normalized to total nuclei number. To calculate normalized survival index, the percentage of ISL1+/DAPI at day 25 was arbitrary set as 1.0, and motor neuron survival on later days were in turn normalized to day 25 cultures.
(§1) Motor neuron cultures at day 27 were dissociated with Accutase and seeded at 2 million cells per well in a 6-well plate. At day 28, non-targeting siRNA or siRNAs were individually complexed with Lipofectamine RNAiMAX following manufacturer's instructions and added to the motor neuron cultures. For each well, 10 pmol of siRNAs and 8 μl of Lipofectamine RNAiMAX were used. Cells were either harvested for RNA and protein analyses, fixed for immunostaining or metabolic flux analysis were performed 3 days after siRNA transfection.

ALS MNs [2] = experiment: Metabolic flux analysis, MitoStress assay (OCR) in ALS MNs; assay type: cell-based, human; conditions: for ATP production / basal respiration / spare respiratory capacity: NAM 0.5 mM, siRNA 3 days; for ATP production: C12 5 μM; for mitochondrial respiration / metabolic profile: day 31, C12 5 μM, Riluzole 5 μM, Edaravone 100 μM
Protocol: (§2) After dissociating with Accutase, cells were blocked with solution containing phosphate-buffered saline, 0.5% bovine serum albumin (BSA) and 2 mM EDTA. The cells were then incubated with CD171-APC antibody (Miltenyi Biotec) and PSA-NCAM-APC antibody (Miltenyi Biotec) for 10 mins at 4° C. After washing, the cells were then incubated with anti-APC microbeads for 15 minutes at 4° C. The cells were then washed twice and filtered prior to loading into the separation column (LS column) that was attached to a magnetic stand (all from Miltenyi Biotec). After three rounds of washing, the column was removed from the magnetic stand and labelled cells were eluted in culture media for replating.
as §1

ALS MNs [3] = experiment: Metabolic flux analysis, Glycolysis stress assay (ECAR) in ALS MNs; assay type: cell-based, human; conditions: for glycolysis: C12 5 μM, siRNA 3 days
Protocol: as §1

ALS MNs [4] = experiment: Neuronal morphology (soma size, primary neurites) in ALS MNs; assay type: cell-based, human; conditions: for number of primary neurites / soma size: day 31; for neuronal morphologies: day 31, NAM 0.5 mM, C12 5 μM, Riluzole 5 μM, Edaravone 100 μM, siRNA
Protocol: Cells were fixed in 4% paraformaldehyde for 15 minutes, permeabilized in 0.1% Triton X-100 for 15 minutes and blocked in buffer containing 5% FBS and 1% BSA for an hour at room temperature. Primary antibodies (Table S4) were diluted in blocking buffer and incubated overnight at 4° C. Cells were washed thrice in PBS. The respective secondary antibodies were diluted 1:1500 in blocking buffer and incubated at room temperature, in the dark, for 90 minutes. DAPI was used at 0.1 μg/ml to visualize cellular nuclei.
Images were acquired using the high content microscope Phenix (Perkin Elmer) using the 20× air objective. Image analyses including cell counts and intensity measurements were performed using Columbus (Perkin Elmer).
For primary neurites analysis, neuronal projections from the soma size was determined based on SMI-32 staining. For soma size analysis, cellular nuclei were identified by DAPI, and the cytoplasmic area surrounding the nucleus was determined based on SMI-32 staining. Soma size area was measured by image analysis software (ImageJ, NIH) based on the cytoplasmic area surrounding the nucleus, excluding neuronal projections.

total MnSOD = experiment: Western blot of total MnSOD protein levels in C12-treated MNs; assay type: cell-based, human; conditions: BJ-SOD1^L144F MNs, increasing doses of C12, day 31
Protocol: (§3) Protein lysates were resolved in 12% SDS-PAGE gels or 4-20% precast gels in Tris-Glycine-SDS buffer. Proteins were then transferred to a nitrocellulose membrane and blocked with 5% milk in TBST buffer. Primary antibodies were diluted in 5% milk and incubated with the membranes overnight at 4° C. Membranes were washed thrice in TBST buffer. The corresponding horseradish peroxidase secondary antibodies (Life Technologies) were then diluted 1:5000 in 5% milk and incubated at room temperature for 90 minutes. Blots were washed thrice before exposing to ECL for imaging.

[5] = test system: mitochondrial acetyl-lysine proteins; experiment: Western blot of acetyl-lysine proteins in purified mitochondrial extracts of ALS MNs; assay type: cell-based, human; conditions: panel of ALS MNs, 5 μM C12, day 31
Protocol: as §3
(§4) Mitochondria from motor neuron cultures were isolated using the MACS technology. Motor neurons culture were first Accutase and wash twice with PBS before resuspending in ice cold Lysis buffer. The cells were then homogenized with a dounce homogenizer (Pestle B) 15 strokes. The homogenate was diluted with 1× separation buffer based on manufacturer's instructions. Anti-TOM22 were added to magnetically label the mitochondria before incubating at 4° C. for 1 hour. The cells were then washed twice and filtered prior to loading into the separation column (LS column) that was attached to a magnetic stand (all from Miltenyi Biotec). After three rounds of washing, the column was removed from the magnetic stand and labelled mitochondria were eluted in storage buffer for downstream applications.

CHOP = experiment: qPCR of ER stress transcript CHOP in ALS MN cultures; assay type: cell-based, human; conditions: ALS MNs, day 31; C12 5 μM, Riluzole 5 μM, Edaravone 100 μM
Protocol: (§5) Cells were harvested in Trizol reagent for RNA extraction following manufacturer's instructions. Purified RNA was converted to cDNA using the High-Capacity cDNA Reverse Transcription kit, and quantitative PCR (qPCR) was performed on the QuantStudio 5 Real-Time PCR System using PowerUp™ SYBR™ Green Master Mix (all from Applied Biosystems). Gene expressions were normalized to HPRT and ACTB expression unless otherwise stated.

spliced XBP1 (sXBP1) = experiment: qPCR of ER stress transcript spliced XBP1 in ALS MN cultures; assay type: cell-based, human; conditions: ALS MNs, day 31; C12 5 μM, Riluzole 5 μM, Edaravone 100 μM
Protocol: as §5

mitochondrial Complex I = experiment: Complex I activity in ALS MNs; assay type: cell-based, human; conditions: day 31, C12
Protocol: Cell lysates were prepared using Complex I Enzyme Activity Microplate Assay Kit (Abcam), following the manufacturer's instructions. Activity of Complex I was recorded, normalized and quantified based on manufacturer's instructions. Biological triplicates were performed with a minimum of 3 technical replicates each.

SMA type I (1-38G) MNs = experiment: MitoStress assay in SMA type I MNs; assay type: cell-based, human; conditions: 5 μM C12
SIRT1 = target: T1, SIRT1 (Homo sapiens, UniProt Q96EB6); experiment: Cellular thermal shift assay (CETSA), SIRT1; conditions: 20 μM C12, 1 hour, intact HEK293T cells, 48-68° C.
T1 sequence (Q96EB6 1-747): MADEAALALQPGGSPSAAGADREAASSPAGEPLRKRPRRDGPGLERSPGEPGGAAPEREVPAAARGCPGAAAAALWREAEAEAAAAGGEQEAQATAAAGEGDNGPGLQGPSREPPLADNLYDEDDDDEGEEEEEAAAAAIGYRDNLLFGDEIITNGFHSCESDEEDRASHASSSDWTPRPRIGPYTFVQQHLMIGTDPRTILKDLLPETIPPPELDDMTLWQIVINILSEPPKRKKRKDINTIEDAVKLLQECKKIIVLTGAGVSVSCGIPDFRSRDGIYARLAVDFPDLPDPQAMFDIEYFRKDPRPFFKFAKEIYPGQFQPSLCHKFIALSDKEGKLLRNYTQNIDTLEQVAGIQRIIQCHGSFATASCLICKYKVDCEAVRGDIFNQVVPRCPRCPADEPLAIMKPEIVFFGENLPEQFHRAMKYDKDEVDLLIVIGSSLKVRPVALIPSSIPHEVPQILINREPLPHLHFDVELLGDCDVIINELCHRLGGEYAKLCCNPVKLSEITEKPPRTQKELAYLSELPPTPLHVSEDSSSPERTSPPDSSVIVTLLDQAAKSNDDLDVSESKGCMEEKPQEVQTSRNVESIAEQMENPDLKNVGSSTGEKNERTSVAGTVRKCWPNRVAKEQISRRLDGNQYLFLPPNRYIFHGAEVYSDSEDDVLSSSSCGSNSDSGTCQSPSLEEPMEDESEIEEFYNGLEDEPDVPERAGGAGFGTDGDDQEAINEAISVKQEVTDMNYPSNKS
Protocol: CETSA was performed as previously described (3) and HEK293T cells were used to carry out the experiment. […] After the incubation, the cells were harvested, washed, pellet down and resuspended in 1 mL of PBS. Equal amounts of cell suspensions were aliquoted into Eppendorf tubes. The cell suspensions were then heated (48-68° C.) and lysed using 2 cycles of freeze-thawing. The soluble fractions were isolated and analyzed by Western blot analysis as described above.

ALS patients = conditions: cited from earlier work
ALS MNs [6] = experiment: Mitochondrial NAD+ quantification in ALS iPSC-derived MNs; assay type: cell-based, human; conditions: 0.5 mM NAM
Protocol: as §4
(§6) Mitochondria from motor neuron cultures (10 million cells) were isolated using the MACS technology (as described above). Mitochondrial NAD+ was prepared quantified using NAD/NADH-Glo™ Assay (Promega) following manufacturer's instructions. Briefly, isolated mitochondria were first diluted in PBS, bicarbonate base buffer and 1% DTAB in a ratio of 2:1:1. […] After heating, 0.5M of Trizma base was added to the suspension and levels of mitochondrial NAD^+ were recorded, normalized to NAD^+ standard curve and quantified based on manufacturer's instructions (Promega). […]

healthy MNs [7] = experiment: Mitochondrial NAD+ quantification in healthy iPSC-derived MNs; assay type: cell-based, human; conditions: NAM supplementation
Protocol: as §4, §6

healthy MNs [8] = experiment: Metabolic flux analysis, MitoStress assay (OCR) in healthy MNs; assay type: cell-based, human
Protocol: as §2, §1

GCN5L1 = GCN5L1 knockdown by siRNA in iPSC-derived MNs (qPCR); assay type: cell-based, human; conditions: day 31, vs non-targeting siRNA
Protocol: as §1, §5

Row | Molecule | MN survival (ISL1+ MNs) (ALS MNs [1]) | ATP production (ALS MNs [2]; SIRT3 lentivirus day 28-31) | mitochondrial respiration / metabolic profile (ALS MNs [2]) | glycolysis (ALS MNs [3]) | number of primary neurites (ALS MNs [4]) | soma size (ALS MNs [4]) | neuronal morphologies (ALS MNs [4]) | expression of ER stress transcript CHOP (CHOP) | expression of ER stress transcript sXBP1 (spliced XBP1 (sXBP1)) | efficacy in ALS patients (ALS patients) | basal respiration (ALS MNs [2]; SIRT3 lentivirus day 28-31) | spare respiratory capacity (ALS MNs [2]; SIRT3 lentivirus day 28-31) | hyper-glycolytic metabolic profile / phenotype (ALS MNs [3]) | other results
1 | COc1ccc(-c2cc3ccc(O)cc3oc2=O)cc1 [C12, 7-hydroxy-3-(4′-methoxyphenyl) coumarin] | promoted ALS MN survival | rescued ATP production back to healthy levels | promoted mitochondrial respiration | reduced glycolysis | increased number of primary neurites | enlarged soma sizes | improved neuronal morphologies | significantly reduced | significantly reduced |  |  |  |  | cytotoxicity (ALS MNs [1]; 10 μM C12, ALS MNs (BJ-SOD1^L144F)): cytotoxic; total MnSOD protein levels (total MnSOD): remains unchanged; mitochondrial acetyl-lysine signals [5]: significantly reduced; mitochondrial Complex I activity (mitochondrial Complex I): increased mitochondrial Complex I activity; metabolic defect (basal respiration, ATP production) (SMA type I (1-38G) MNs): did not improve the metabolic defect; thermal stability of SIRT1 (SIRT1): but not another abundantly expressed sirtuin, SIRT1
2 | CC1=NN(c2ccccc2)C(=O)C1 [Edaravone] | promoted ALS MN survival |  | did not show any significant changes |  | no significant change | no significant change | did not improve neuronal morphologies | significantly reduced | significantly reduced | efficacy only in a small subset of ALS patients |  |  |  | 
3 | NC(=O)c1cccnc1 [NAM, Nicotinamide] | promoted ALS MN survival | significantly improved |  |  |  |  | healthier neuronal morphologies |  |  |  | significantly improved | significantly improved | corrected the hyper-glycolytic metabolic profile | mitochondrial NAD+ levels (ALS MNs [6]): significantly elevated; mitochondrial NAD+ levels (healthy MNs [7]): did not elevate; mitochondrial respiration (OCR parameters) (healthy MNs [8]): no significant effects
4 | Nc1nc2ccc(OC(F)(F)F)cc2s1 [Riluzole] |  |  |  |  |  |  |  | significantly reduced | significantly reduced | efficacious amongst bulbar-onset ALS patients and not in subjects with limb-onset ALS |  |  |  | lifespan extension (ALS patients; on average): 3 months
5 | GCN5L1 siRNA: siRNA against human GCN5L1, Dharmacon J-012580-09-0010 (AGAGGAGGCGAGAGGCUAU; listed as RNA, further chemistry not given here) | promoted survival | rescued ATP production back to healthy levels |  | reduced |  |  | healthier neuronal morphologies |  |  |  | significant improvements | significant improvements | reduced hyper-glycolytic phenotype | ATP production (ALS MNs [2]; SIRT3 lentivirus day 28-31, listed as siRNAs targeting GCN5L1): significant improvements; basal acidification (ALS MNs [3]): reduced; glycolytic capacity (ALS MNs [3]): reduces glycolytic capacity; GCN5L1 knockdown (GCN5L1): 60%
